According to patent US20250120942A1, “BRAIN FUNCTION IMPROVING AGENT” (OSAKA UNIVERSITY, priority 2021, published 2025):

Experiments:
[1] = system: extracellular acetylcholine in the cerebral cortex; assay: Amount of extracellular acetylcholine in mouse brain by in vivo microdialysis (Test Example 1); design: species or system ddY mouse; settings: for amount of extracellular acetylcholine in the cerebral cortex (ratio to basic released amount): oral 30 mg/kg, measured for 120 minutes after administration, compared with before administration, FIG. 1
Experimental: The compound A, B, and C were administered orally to the mouse and the effect on the amount of extracellular acetylcholine in the brain was examined. The brain microdyalysis method using the mouse is proposed as a test for evaluating cognitive dysfunction including Alzheimer type dementia. The brain microdyalysis method is a system that can monitor the variation of extracellular neurotransmitter release in real time at the local parts in the brain while the test animals are moving freely without anesthesia.
(§1) 7-weeks-old male ddY mice were purchased from Japan SLC, Inc. and subjected to the experiment after one week habituation period. The animals were reared in the rearing chamber provided with air conditioner (under the condition that the temperature was 22° C.±1° C., the relative humidity was 50±10%, and the irradiation time was 12 hours (8:00 to 20:00)). The feeding method was that the commercially available MF powdery feed (manufactured by Oriental Yeast Co., ltd.) and tap water were taken freely.
In the two days before the start of the experiment, the fixing operation of the guide cannula for inserting the dialysis probe in the mouse was conducted in advance. Under the deep anesthetized conditions, the guide cannula (depth 4 mm) (manufactured by Eicom Corp.,) was inserted in and fixed on cerebral cortex prefrontal area (which was 1.9 mm forward and 0.5 mm right side from the bregma and to which the depth from cranial surface was 0.8 mm). Buprenorphine (0.01 mg/kg manufactured by Sigma-Aldrich Japan) was administered to the mouse as analgesic after the operation. Each mouse was reared in the separate cage after the operation.
In the step of measuring extracellular acetylcholine in the brain, the dialysis probe (membrane length 3 mm) (manufactured by Eicom Corp.,) was inserted in the guide cannula and the Ringer's solution in the Japanese Pharmacopeia (containing NaCl (147.2 mM), KCl (4.0 mM), and CaCl2 (2.2 mM); manufactured by FUSO CHEMICAL CO., LTD.) was perfused at the flow velocity of 1 μL/min. The sample obtained by the perfusion was collected every 20 minutes and was immediately continuously automatically injected in the high-speed liquid chromatography/electrochemical detector (HPLC/ECD) system (manufactured by Eicom Corp., HTEC-500) together with the internal standard material (isopropylhomocholine, 250 fmol) and acetylcholine was measured under the condition described below.
• Column: Eicompak AC-GEL (2.0 mm; i.d.×150 mm) (manufactured by Eicom Corp.,) • Precolumn: PC-05-03 (3.0 mm; i.d.×40 mm) (manufactured by Eicom Corp.,) • Enzyme-immobilized column: AC-Enzympak (3.0 mm; i.d.) (manufactured by Eicom Corp.,) • Mobile Phase: 50 mM potassium hydrogen carbonate buffer containing 400 mg/L sodium decansulfonic acid and 134 μM EDTA (pH 8.3) • Flow Velocity: 150 μl/min. • Temperature of column: 33° C. • Applied voltage of ECD: +450 mV • Reference electrode: Ag/AgCl electrode • Work electrode: platinum electrode
The compound A prepared according to the procedure described in Manufacturing Example 1 was dissolved in 2.5% DMSO solution in advance to prepare for the test. […] The amount of the extracellular acetylcholine released was measured by the procedure described above in (a) Used animal and Rearing Procedure in real time for 120 minutes after the administration. The mouse in Vehicle group took only 2.5% DMSO solution orally in the same way and the amount of the extracellular acetylcholine was measured. […]

[2] = system: scopolamine-induced amnesia mouse; assay: Y-maze test, short-term working memory of scopolamine-induced amnesia mouse (Test Example 2); type: in vivo, ddY mouse; settings: oral 30 mg/kg, scopolamine 1 mg/kg i.p.; FIG. 2(A),(B)
Experimental: The effect of inhibiting lowering of short-term memory was examined by orally or subcutaneously (intraperitoneally) administering the compound A to the mouse.
as §1
The compound A prepared according to the procedure described in Manufacturing Example 1 was dissolved in 2.5% DMSO solution in advance. There were 15 mice in each group, and the 30 mg/kg compound administration group and the 10 mg/kg compound administration group were established and orally administered. The mice of the control group and Vehicle group were orally administered with only 2.5% DMSO solution. In the same manner the compound B and the compound C were orally administered to 10 mice at a dose of 30 mg/kg respectively. Each mouse of the administration groups of the compound A to C and the vehicle group was intraperitoneally administered with scopolamine hydrobromide (manufactured by Sigma-Aldrich Japan S1875) (a dose of 1 mg/kg) which is muscarinic acetylcholine receptor antagonist 30 minutes after the administration. The mice of the control group which were not administered with scopolamine hydrobromide were intraperitoneally administered with (Japanese Pharmacopoeia) physiological saline solution (OTSUKA NORMAL SALINE 3311401A2026). At 30 minutes after the final administration, Y-maze test was conducted, and the working memory was evaluated. The test using the mice orally administered was separately conducted under the same condition as that described above for comparative evaluation of the intraperitoneal administration.
The Y-maze manufactured by Brain Science. idea Co., Ltd. was used for the test. The maze was the maze 3 courses of which were made into Y-letter shape having one selection point and arranged at interval of an angle of 120 degree. […] The mouse put on the gray course (made of polyvinyl chloride) was kept in the conditions and the mouse can see nothing but the upper part. Any one of the 3 courses of the maze was set as a starting point. After placing the mouse quietly at the starting point, the number of the times the mouse entered each course was record per 8 minutes, and as well as which course and in what order the mouse entered it. The ratio of the number of three consecutive entries into different courses (the number of the alternation behavior) to the total number of the selections was calculated as Spontaneous Alternation (%) according to the following formula and was used as an index of the short-term working memory.
From the results obtained, the mean (Mean) and the standard error (SEM) were calculated. The significant difference between the control group and the Vehicle group and between the compound A administration group and the Vehicle group was assessed by Turkey-Kramer's test. The level of significance was set to *P<0.05 and **p<0.01.

[3] = system: cytotoxicity induced by β-oligomer; settings: cited from earlier work
[4] = target: acetylcholine esterase (Homo sapiens, UniProt P22303); assay: Inhibiting action of acetylcholine esterase (data not described); type: biochemical
[5] = mouse, oral administration; cited from earlier work
[6] = system: cranial nerve cell SH-SY5Y; settings: SH-SY5Y in vitro; cited from earlier work
[7] = system: amyloid β; settings: mouse model of the Alzheimer's disease; cited from earlier work
[8] = cited from earlier work

Chain of acetylcholine esterase (P22303 32-614): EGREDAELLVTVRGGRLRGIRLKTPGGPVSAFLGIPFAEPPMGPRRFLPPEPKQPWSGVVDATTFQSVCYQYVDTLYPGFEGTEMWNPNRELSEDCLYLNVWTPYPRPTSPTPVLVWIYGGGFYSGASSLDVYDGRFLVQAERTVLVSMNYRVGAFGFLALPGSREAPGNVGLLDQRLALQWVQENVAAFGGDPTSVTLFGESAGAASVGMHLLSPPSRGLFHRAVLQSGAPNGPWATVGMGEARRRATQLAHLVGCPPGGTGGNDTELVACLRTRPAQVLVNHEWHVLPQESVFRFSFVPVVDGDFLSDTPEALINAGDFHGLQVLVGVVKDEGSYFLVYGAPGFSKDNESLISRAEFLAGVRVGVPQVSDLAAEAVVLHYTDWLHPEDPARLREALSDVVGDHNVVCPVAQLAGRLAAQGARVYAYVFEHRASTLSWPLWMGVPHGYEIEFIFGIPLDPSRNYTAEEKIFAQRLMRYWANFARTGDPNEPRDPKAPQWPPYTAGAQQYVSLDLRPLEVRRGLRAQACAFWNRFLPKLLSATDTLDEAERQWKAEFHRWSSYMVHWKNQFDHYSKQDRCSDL

## O=C1CC[C@H](Cc2ccc(O)c(O)c2)O1 [compound B, (R)-5-(3,4-dihydroxyphenyl)-γ-valerolactone, reference compound]
[1]
  amount of extracellular acetylcholine in the cerebral cortex (ratio to basic released amount): not significant change
[2]
  ameliorating the impairment of short-term working memory (Spontaneous Alternation): not confirmed at all

## O=C1CC[C@H](Cc2cc(O)c(O)c(O)c2)O1 [compound C, (R)-5-(3,4,5-trihydroxyphenyl)-γ-valerolactone, reference compound]
[1]
  amount of extracellular acetylcholine in the cerebral cortex (ratio to basic released amount): not significant change
[2]
  ameliorating the impairment of short-term working memory (Spontaneous Alternation): not confirmed at all

## O=C1CCC(Cc2ccc(O)cc2)O1 (centres unmarked) [5-(4-monohydroxyphenyl)-γ-valerolactone]
[3]
  cytotoxicity induced by β-oligomer: reduces the cytotoxicity

## O=C1CCC(Cc2cc(O)cc(O)c2)O1 (centres unmarked) [5-(3,5-dihydroxyphenyl)-γ-valerolactone]
[1]; after the administration
  time until which the increased amount of free acetylcholine is maintained: ≤ 100 min
[4]
  inhibiting action of acetylcholine esterase: do not provide inhibiting action
[5]
  sulfate conjugate and glucuronic acid conjugate in the serum: detected
[6]
  nerve cell proliferating action: significant nerve cell proliferating action

## O=C(O[C@@H]1Cc2c(O)cc(O)cc2O[C@@H]1c1cc(O)c(O)c(O)c1)c1cc(O)c(O)c(O)c1 [EGCg, epigallocatechingallate]
[7]
  generation of amyloid β: inhibit the generation of amyloid β
[8]
  amount absorbed into the body after ingestion (bioavailability): extremely low
